Source: patent publication US5229409A, “6-substituted-tetrahydrobenz[cd]indoles” (Eli Lilly and Company, priority 1991, dated 1993)
pIC50: −log10 of the molar value.

Assays:
5-HT1A receptor = target: T1, 5-HT1A receptor (Rattus norvegicus, UniProt P19327); assay: [3H]8-OH-DPAT binding to 5-HT1A sites in hippocampal membranes; parameters: species or system rat (male Sprague-Dawley); details: [3H]8-OH-DPAT 1.0 nM, pH 7.4, 37° C
T1 construct: the brains were rapidly chilled and dissected to obtain the hippocampi; from tissue; host or cells: hippocampi of male Sprague-Dawley rats (150-250 g), washed membranes
T1 sequence (P19327 1-422): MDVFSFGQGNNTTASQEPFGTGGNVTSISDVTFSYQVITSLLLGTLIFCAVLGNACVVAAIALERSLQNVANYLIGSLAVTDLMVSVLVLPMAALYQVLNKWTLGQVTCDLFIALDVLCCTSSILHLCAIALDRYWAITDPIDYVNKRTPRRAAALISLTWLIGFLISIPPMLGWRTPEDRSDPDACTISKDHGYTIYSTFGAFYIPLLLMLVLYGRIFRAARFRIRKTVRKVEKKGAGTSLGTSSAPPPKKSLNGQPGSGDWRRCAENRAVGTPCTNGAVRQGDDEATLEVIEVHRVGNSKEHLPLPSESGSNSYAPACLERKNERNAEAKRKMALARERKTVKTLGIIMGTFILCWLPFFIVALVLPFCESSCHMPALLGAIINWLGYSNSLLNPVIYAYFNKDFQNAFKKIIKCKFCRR
Experimental: The affinities of the compounds at the central […] described by Taylor, et al., (J. Pharmacol. Exp. Ther. 236:118-125, 1986). Membranes for the binding assay were prepared from male Sprague-Dawley rats (150-250 g). The animals were killed by decapitation, and the brains were rapidly chilled and dissected to obtain the hippocampi. The hippocampi were either prepared that day or stored frozen (-70° C.) until the day of preparation. Membranes were prepared by homogenizing the tissue in 40 volumes of ice-cold Tris-HCl buffer (50 mM, pH 7.4 at 22° C.) using a Techmar Tissumizer (setting 65 for 15 sec), and the homogenate was centrifuged at 39800 xg for 10 min. The resulting pellet then resuspended in the same buffer, and the centrifugation and resuspension process was repeated three additional times to wash the membranes. Between the second and third washes the resuspended membranes were incubated for 10 min at 37° C. to facilitate the removal of endogenous ligands. The final pellet was resuspended in 67 mM Tris-HCl, pH 7.4, to a concentration of 2 mg of tissue original wet weight/200 μl. This homogenate was stored frozen (-70° C.) until the day of the binding assay. […] The assay tubes were incubated for 10 min at 37° C, and the contents were then rapidly filtered through GF/B filters (pretreated with 0.5% polyethylenimine), followed by four one-mL washes with ice cold buffer. The radioactivity trapped by the filters was quantitated by liquid scintillation spectrometry, and specific [^3 H]8-OH-DPAT binding to the 5-HT1A sites was defined as the difference between [^3 H]8-OH-DPAT bound in the presence and absence of 10 μM 5-HT.
The affinity of the particular compound at the 5-HT1A receptor is expressed as IC50 value, i.e., the concentration required to inhibit 50% of the binding. The IC50 values were determined from 12-point competition curves using nonlinear regression (SYSTAT, SYSTAT, INC., Evanston, Ill.).

[1] = test system: 5-hydroxyindole acetic acid (5HIAA); assay: whole brain 5-hydroxyindoleacetic acid (5HIAA) concentration in vivo in rats; parameters: species or system rat (male albino)
Experimental: In another experiment certain compounds of the Examples were evaluated to determine ability to affect the 5-hydroxyindoles serotonin and 5-hydroxyindole acetic acid (5HIAA), and serum corticosterone, in vivo. Male albino rats were injected subcutaneously with an aqueous solution of the compound. The pH of the solution was adjusted as necessary to solubilize the compound. A control of the solution without the test compound was similarly injected into a control animal. […] Trunk blood was collected and allowed to clot. After centrifugation, serum was stored frozen prior to analysis. The whole brain was removed and frozen on dry ice for storage prior to analysis. The serum corticosterone concentration was measured spectrofluorometrically using the procedure of Solem and Brinck-Johnson, "An Evaluation of a Method for Determination of Free Corticosteroids in Minute Quantities of Mouse Plasma", Scand. J. Clin. Lab. Invest., Suppl. 80, p. 1-14 (1965), incorporated herein by reference. 5-Hydroxyindoleacetic acid (5HIAA) concentration in whole brain was measured by liquid chromatography with electrochemical detection as reported by Fuller and Perry, "Effects of Buspirone and its Metabolite, 1-(2-pyrimidinyl)piperazine, on Brain Monoamines and Their Metabolites in Rats", J. Pharmacol. Exp. Ther., 248, p. 50-56 (1989), incorporated herein by reference.

serum corticosterone = serum corticosterone concentration in vivo in rats; parameters: species or system rat (male albino); details: 1 hour
Experimental: In another experiment certain compounds of the Examples were evaluated to determine ability to affect the 5-hydroxyindoles serotonin and 5-hydroxyindole acetic acid (5HIAA), and serum corticosterone, in vivo. Male albino rats were injected subcutaneously with an aqueous solution of the compound. The pH of the solution was adjusted as necessary to solubilize the compound. A control of the solution without the test compound was similarly injected into a control animal. The rats were decapitated one hour later. Trunk blood was collected and allowed to clot. After centrifugation, serum was stored frozen prior to analysis. The whole brain was removed and frozen on dry ice for storage prior to analysis. The serum corticosterone concentration was measured spectrofluorometrically using the procedure of Solem and Brinck-Johnson, "An Evaluation of a Method for Determination of Free Corticosteroids in Minute Quantities of Mouse Plasma", Scand. J. Clin. Lab. Invest., Suppl. 80, p. 1-14 (1965), incorporated herein by reference. 5-Hydroxyindoleacetic acid (5HIAA) concentration in whole brain was measured by liquid chromatography with electrochemical detection as reported by Fuller and Perry, "Effects of Buspirone and its Metabolite, 1-(2-pyrimidinyl)piperazine, on Brain Monoamines and Their Metabolites in Rats", J. Pharmacol. Exp. Ther., 248, p. 50-56 (1989), incorporated herein by reference.

[2] = 0.0003 mg/kg s.c., 1 hour, series 0.0003-0.03 mg/kg
[3] = 0.003 mg/kg s.c., 1 hour, series 0.0003-0.03 mg/kg
[4] = 0.03 mg/kg s.c., 1 hour, series 0.0003-0.03 mg/kg
[5] = 0.03 mg/kg s.c., 1 hour, series 0.03-3 mg/kg
[6] = 0.3 mg/kg s.c., 1 hour, series 0.03-3 mg/kg
[7] = 3 mg/kg s.c., 1 hour, series 0.03-3 mg/kg
[8] = 0.0003 mg/kg s.c., series 0.0003-0.03 mg/kg
[9] = 0.003 mg/kg s.c., series 0.0003-0.03 mg/kg
[10] = 0.03 mg/kg s.c., series 0.0003-0.03 mg/kg
[11] = 0.03 mg/kg s.c., series 0.03-3 mg/kg
[12] = 0.3 mg/kg s.c., series 0.03-3 mg/kg
[13] = 3 mg/kg s.c., series 0.03-3 mg/kg

CCCN(CCC)C1Cc2c[nH]c3ccc(C(C)=O)c(c23)C1 (racemic) [Example 2, (±)-6-Acetyl-4-(di-n-propylamino)-1,3,4,5-tetrahydrobenz[cd]indole]
pIC50 (5-HT1A receptor): 9.70
5HIAA [1, 2]: 2.21 ± 0.05 nmol/g
5HIAA [1, 3]: 1.79 ± 0.10 nmol/g
5HIAA [1, 4]: 1.95 ± 0.04 nmol/g
5HIAA [1, 5]: 1.27 ± 0.01 nmol/g
5HIAA [1, 6]: 1.10 ± 0.06 nmol/g
5HIAA [1, 7]: 2.04 ± 0.02 nmol/g
Serum Corticosterone (serum corticosterone; [8]): 3.8 ± 0.5 microg./100 ml
Serum Corticosterone (serum corticosterone; [9]): 3.6 ± 0.1 microg./100 ml
Serum Corticosterone (serum corticosterone; [10]): 36.7 ± 1.2 microg./100 ml
Serum Corticosterone (serum corticosterone; [11]): 33.4 ± 3.7 microg./100 ml
Serum Corticosterone (serum corticosterone; [12]): 39.1 ± 1.1 microg./100 ml
Serum Corticosterone (serum corticosterone; [13]): 13.8 ± 0.6 microg./100 ml

CCCN(CCC)[C@@H]1Cc2c[nH]c3ccc(C(C)=O)c(c23)C1 [Example 8, (4S)-(-)-6-acetyl-4-(di-n-propylamino)-1,3,4,5-tetrahydrobenz[cd]indole]
pIC50 (5-HT1A receptor): 9.92
5HIAA [1, 2]: 1.91 ± 0.08 nmol/g
5HIAA [1, 3]: 1.47 ± 0.04 nmol/g
5HIAA [1, 4]: 1.59 ± 0.10 nmol/g
5HIAA [1, 5]: 1.31 ± 0.06 nmol/g
5HIAA ([1]; 0.1 mg/kg orally, 5 hrs before sacrifice): 1.67 ± 0.04 nmol/g
5HIAA ([1]; 0.3 mg/kg orally, 5 hrs before sacrifice): 1.60 ± 0.07 nmol/g
5HIAA [1, 6]: 1.36 ± 0.04 nmol/g
5HIAA ([1]; 1 mg/kg orally, 5 hrs before sacrifice): 1.74 ± 0.05 nmol/g
5HIAA ([1]; 3 mg/kg orally, 5 hrs before sacrifice): 1.31 ± 0.08 nmol/g
5HIAA [1, 7]: 1.35 ± 0.04 nmol/g
Serum Corticosterone (serum corticosterone; [8]): 3.4 ± 0.2 microg./100 ml
Serum Corticosterone (serum corticosterone; [9]): 3.8 ± 0.2 microg./100 ml
Serum Corticosterone (serum corticosterone; [10]): 40.3 ± 1.8 microg./100 ml
Serum Corticosterone (serum corticosterone; [11]): 47.0 ± 2.4 microg./100 ml
Serum Corticosterone (serum corticosterone; [12]): 47.3 ± 2.3 microg./100 ml
Serum Corticosterone (serum corticosterone; [13]): 45.4 ± 1.3 microg./100 ml

CCCN(CCC)[C@H]1Cc2c[nH]c3ccc(C(C)=O)c(c23)C1 [Example 7, (4R)-(+)-6-acetyl-4-(di-n-propylamino)-1,3,4,5-tetrahydrobenz[cd]indole]
pIC50 (5-HT1A receptor): 9.66
5HIAA [1, 2]: 1.93 ± 0.07 nmol/g
5HIAA [1, 3]: 1.80 ± 0.05 nmol/g
5HIAA [1, 4]: 1.34 ± 0.07 nmol/g
5HIAA [1, 5]: 1.43 ± 0.02 nmol/g
5HIAA [1, 6]: 1.37 ± 0.07 nmol/g
Serum Corticosterone (serum corticosterone; [8]): 4.1 ± 0.6 microg./100 ml
Serum Corticosterone (serum corticosterone; [9]): 3.6 ± 0.1 microg./100 ml
Serum Corticosterone (serum corticosterone; [10]): 21.8 ± 2.1 microg./100 ml
Serum Corticosterone (serum corticosterone; [11]): 41.8 ± 1.7 microg./100 ml
Serum Corticosterone (serum corticosterone; [12]): 41.5 ± 5.3 microg./100 ml

CCCN(CCC)[C@H]1Cc2c[nH]c3ccc(C(=O)C(C)C)c(c23)C1 [Example 9, (4R)-(+)-6-(2-methylpropanoyl)-4-(di-n-propylamino)-1,3,4,5-tetrahydrobenz[cd]indole]
pIC50 (5-HT1A receptor): 9.80
5HIAA [1, 2]: 2.44 ± 0.06 nmol/g
5HIAA [1, 3]: 2.23 ± 0.09 nmol/g
5HIAA [1, 4]: 1.82 ± 0.08 nmol/g
5HIAA [1, 5]: 1.38 ± 0.02 nmol/g
5HIAA [1, 6]: 1.22 ± 0.04 nmol/g
5HIAA [1, 7]: 1.38 ± 0.08 nmol/g
Serum Corticosterone (serum corticosterone; [8]): 4.1 ± 0.5 microg./100 ml
Serum Corticosterone (serum corticosterone; [9]): 6.0 ± 1.3 microg./100 ml
Serum Corticosterone (serum corticosterone; [10]): 9.1 ± 1.2 microg./100 ml
Serum Corticosterone (serum corticosterone; [11]): 7.7 ± 1.8 microg./100 ml
Serum Corticosterone (serum corticosterone; [12]): 40.8 ± 2.0 microg./100 ml
Serum Corticosterone (serum corticosterone; [13]): 30.8 ± 4.5 microg./100 ml
